Experiments:
[1] = in humans, Fig. 1a; cited from earlier work
[2] = Stability of heroin and its metabolites in dilute mouse sera; details: 24 h
[3] = Stability of heroin and its metabolites in DPBS without sera; assay type: physicochemical
plasma proteins [4] = test: Binding of D3-tracers to plasma proteins in dilute week 0 (preimmunized) sera by ED; assay type: in vitro ADME, mouse; details: ≥1:400 dilution of week 0 (preimmunized) sera
Procedure: Week 0 and week 9 sera were considered as negative and anti-hapten sera, respectively. Anti-hapten sera solutions were prepared by diluting the sera in DPBS (1:400, 1:800, or 1:600). Dialysis buffer was prepared by diluting the corresponding negative sera in DPBS (1:400, 1:800, or 1:600). Competitive inhibitors with different initial concentrations were prepared in the dialysis buffer. For the test samples, anti-hapten sera/D3-tracer was run against the negative sera/inhibitors at the same sera dilution. […] For negative controls, negative sera/D3-tracer was run against the negative sera at the same sera dilution.

plasma proteins [5] = details: neat plasma/sera; cited from earlier work

Q: Which results are given for 6-acetylmorphine [6-AM]?
A: t1/2 [1]: 22 to 26 min; hydrolysis of 6-AM in dilute sera ([2]; normal mouse sera, ≥1:200 dilutions, 4 °C): not observed; degradation in the absence of sera ([3]; DPBS pH 7.4, 4 °C): No degradation

Q: With `[2H]C([2H])([2H])N1CCC23c4c5ccc(O)c4OC2C(OC(C)=O)C=CC3C1C5` (stereo not shown) [D3-6-AM] as the molecule, how does the “binding to the plasma proteins” value (plasma proteins [4]) read?
A: Its value is ~0%.

Q: Which “binding to the plasma proteins” value (plasma proteins [4]) does the source give for `[2H]C([2H])([2H])N1CCC23c4c5ccc(O)c4OC2C(O)C=CC3C1C5` (stereo not shown) [D3-morphine] here?
A: The value was ~0%.

Q: What does the source list for `CC(=O)Oc1ccc2c3c1O[C@H]1[C@@H](OC(C)=O)C=C[C@H]4[C@@H](C2)N(C)CC[C@@]341` [heroin]?
A: t1/2 [1]: 3 to 4 min; amount of intact heroin ([2]; 1:400 sera dilution with iso-OMPA and BNPP): ≥ 80%; hydrolysis of heroin in dilute sera ([2]; normal mouse sera, all dilutions (1:25-1:400), 4 °C): extensive hydrolysis; partial heroin hydrolysis ([3]; absence of sera, DPBS pH 7.4, 4 °C): ~20%; % heroin remained intact ([3]; after 24 h in DPBS (− Sera), pH 7.4, 4 °C): 79.9 ± 2.71%; plasma binding (plasma proteins [5]): ~35%

Q: Which results are given for `CN1CC[C@]23c4c5ccc(O)c4O[C@H]2[C@@H](O)C=C[C@H]3[C@H]1C5` [morphine]?
A: degradation of morphine in dilute sera ([2]; normal mouse sera, ≥1:100 dilutions, 4 °C): not observed; degradation in the absence of sera ([3]; DPBS pH 7.4, 4 °C): No degradation
